The series in a line: Storage stability of microcapsule emulsion / powder (Method 1, spray-drying). Type of series: physicochemical. The note with it: liquid and dry form of the microcapsule emulsion, ambient temperature. The protocol:
Method 1: Dry Microcapsule Obtained by Atomisation (Spray-Drying)
The emulsion comprising the ingredients above was pre-homogenized with a Polytron™ homogenizer for 3 min at 9000 rpm, then homogenized with a two-stage Avestin™ homogenizer (3*5000 psi+1*500 psi).
Spray drying was performed under the following conditions: spray dryer BUCHI® Mini Spray Drier B-191 with a 2 mm nozzle diameter, air pressure of 60 psi. The emulsion was fed into the main chamber through peristatic pump, feed flow rate was 400 ml/h, inlet air temperature was 160° C. and outlet temperature was 65° C. The dried microcapsules were collected in a cyclone.
Particle size distribution of the final emulsion was less than 1 micron and the powder obtained by atomisation or freeze drying had good rehydration properties, low surface oil and low oxidation during the powder storage. Furthermore, the emulsion in liquid form containing 1.5% sodium caseinate and 15% sunflower oil was physically stable when pasteurized with no preservation agents added to it. Maltodextrin was used as a “wall material” to permit further drying of the emulsion. Additionally, the retention of Altrenogest was well preserved in both the liquid and dry form for a period of at least 5 months at ambient temperature.

As for `C=CC[C@]1(O)CC[C@H]2[C@@H]3CCC4=CC(=O)CCC4=C3C=C[C@@]21C` [Altrenogest], the “period over which retention of Altrenogest was well preserved” value is listed as “at least 5 months”.

Values taken from US20170304260A1, “ALTRENOGEST FORMULATION AND USES THEREOF FOR ESTRUS SYNCHRONISATION IN ANIMALS” (priority 2014, published 2017).
